This passage reports IC50 results from ChEMBL document CHEMBL1821712, “Antimalarial β-carbolines from the New Zealand ascidian Pseudodistoma opacum” (J Nat Prod, 2011).

Structures are written as SMILES. Bounds are passed on as bounds.

In test [1] the test system is Trypanosoma cruzi. The test is described as follows: Antiparasitic activity against Trypanosoma cruzi Tulahuen C4 amastigotes stage forms incubated for 96 hrs by beta-galactosidase reporter gene assay. Type of test: functional, organism-based. The note with it: Tulahuen C4, 96 h. (In a reporter assay the amount or activity of a reporter protein is the signal.)
The subject of test [2] is Trypanosoma brucei rhodesiense. The test is described as follows: Antiparasitic activity against Trypanosoma brucei rhodesiense STIB 900 trypomastigotes stage forms incubated for 72 hrs by Alamar blue staining based fluorometric assay. The note with it: STIB 900, 72 h. Type of test: functional, organism-based.
Test [3] has as its system Leishmania donovani. The test is described as follows: Antiparasitic activity against Leishmania donovani MHOM/ET/67/L82 amastigotes/axenic stage forms incubated for 72 hrs by Alamar Blue staining based fluorometric assay. The note with it: MHOM/ET/67/L82, 72 h. It counts as functional, organism-based.
For test [4], the system named is Plasmodium falciparum. The test is described as follows: Antiparasitic activity against Plasmodium falciparum K1 IEF stage forms incubated for 72 hrs by Alamar Blue staining based fluorometric assay. The note with it: K1, 72 h. In general terms: The colour change of resazurin is a common sign of viable cells or microbes.
Test [5] relates to L6. Nature of the test: Cytotoxicity against rat L6 cells incubated for 72 hrs by Alamar Blue staining based fluorometric assay. It counts as cell-based. The note with it: L6, 72 h.
Test [6] deals with Plasmodium falciparum. Nature of the test: Antiparasitic activity against chloroquine-resistant Plasmodium falciparum Dd2. Type of test: functional, organism-based.
In test [7] the test system is Plasmodium falciparum. The test is described as follows: Antiparasitic activity against chloroquine-sensitive Plasmodium falciparum 3D7. It counts as functional, organism-based.

The IC50 is the concentration that inhibits the measured activity by half. The low end stands for greater potency, the high end for weaker potency.

Consider `N=C(N)NCCCCc1nccc2c1[nH]c1ccccc12`, for which the IC50 was 110 µM in test [1]; 12 µM in test [2]; over 200 µM in test [3]; 6.4 µM in test [4]; 84 µM in test [5].
For `N=C(N)NCCCc1nccc2c1[nH]c1ccccc12`, the IC50 was 130 µM in test [1]; 7.7 µM in test [2]; over 200 µM in test [3]; 7.8 µM in test [4]; 101 µM in test [5].
Taken in the same sequence, the figures for `O=C1c2ccccc2C(=O)N1CCCC1NCCc2c1[nH]c1ccccc21` (stereo not given) were 51 µM, 17 µM, 150 µM, 14 µM and 110 µM.
Turning to `N=C(N)NCCC[C@H]1NCCc2c1[nH]c1cc(Br)ccc21`, the IC50 in test [6] was 5.4 µM; in test [7], 3.5 µM.
`O=C(Cn1ccnc1[N+](=O)[O-])NCc1ccccc1` [BENZNIDAZOLE] showed a half-maximal inhibitory concentration (IC50) in test [1] of 1.8 µM.
`CCCCCCCCCCCCCCCCOP(=O)([O-])OCC[N+](C)(C)C` [MILTEFOSINE]: half-maximal inhibition in test [3] (IC50) was put at 0.53 µM.
For `N=C(N)NCCCCc1nccc2c1[nH]c1cc(Br)ccc12` [OPACALINE A], the IC50 worked out at 86 µM in test [1]; 30 µM in test [2]; 130 µM in test [3]; 2.5 µM in test [4]; 79 µM in test [5].
Take `N=C(N)NCCCCc1nccc2c3ccc(Br)cc3n(O)c12` [OPACALINE B]: the IC50 is 107 µM in test [1]; 27 µM in test [2]; 101 µM in test [3]; 4.5 µM in test [4]; 120 µM in test [5].
In test [5], `COc1cc([C@@H]2c3cc4c(cc3[C@H](O)[C@H]3COC(=O)[C@H]23)OCO4)cc(OC)c1OC` [PODOFILOX] displayed an IC50 of 0.019 µM. This counts as double-digit nanomolar.
